Assay results reported in ChEMBL document CHEMBL1201862, “PubChem BioAssay data set” (2004).
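Where inhibition never reached the appropriate level, the endpoint shown equals the highest concentration tested. Otherwise, values were interpolated linearly from a five-concentration, 48-hour dose response in 96-well plates. GI50 marks 50% less growth.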 Activity calls are given as the source filed them. No stated cut-off is given here; in the data, active = GI50 up to about 1.1 µM and inactive = higher.

Columns and labels:
Test in all cases: NCI-60 cell line screen, 48 h
786-0 = system: 786-0
A498 = system: A498
A549 = system: A549
ACHN = system: ACHN
CAKI-1 = system: CAKI-1
CCRF-CEM = system: CCRF-CEM
COLO 205 = system: COLO 205
DLD-1 = system: DLD-1
DMS-114 = system: DMS-114
DMS-273 = system: DMS-273
HCT-116 = system: HCT-116
HCT-15 = system: HCT-15
HL-60 = system: HL-60
HOP-18 = system: HOP-18
HOP-62 = system: HOP-62
HOP-92 = system: HOP-92
HT-29 = system: HT-29
IGROV-1 = system: IGROV-1
K562 = system: K562
KM-20L2 = system: KM-20L2
KM12 = system: KM12
LOX IMVI = system: LOX IMVI
LXFL 529 = system: LXFL 529
M14 = system: M14
M19-MEL = system: M19-MEL
MOLT-4 = system: MOLT-4
Malme-3M = system: Malme-3M
NCI-H226 = system: NCI-H226
NCI-H23 = system: NCI-H23
NCI-H460 = system: NCI-H460
NCI-H522 = system: NCI-H522
OVCAR-3 = system: OVCAR-3
OVCAR-4 = system: OVCAR-4
OVCAR-5 = system: OVCAR-5
OVCAR-8 = system: OVCAR-8
RPMI-8226 = system: RPMI-8226
RXF 393 = system: RXF 393
SF-268 = system: SF-268
SF-295 = system: SF-295
SF-539 = system: SF-539
SK-MEL-28 = system: SK-MEL-28
SK-MEL-2 = system: SK-MEL-2
SK-MEL-5 = system: SK-MEL-5
SK-OV-3 = system: SK-OV-3
SN12C = system: SN12C
SNB-75 = system: SNB-75
SNB-78 = system: SNB-78
SR = system: SR
SW-620 = system: SW-620
TK-10 = system: TK-10
U-251 = system: U-251
UACC-257 = system: UACC-257
UACC-62 = system: UACC-62
UO-31 = system: UO-31
EKVX = system: EKVX
HCC 2998 = system: HCC 2998
XF498 = system: XF498
SNB-19 = system: SNB-19

With `O=C1c2ccccc2C(=O)N1Cc1ccccc1-c1c2nc(c(-c3ccccc3CN3C(=O)c4ccccc4C3=O)c3ccc([nH]3)c(-c3ccccc3CN3C(=O)c4ccccc4C3=O)c3nc(c(-c4ccccc4CN4C(=O)c5ccccc5C4=O)c4ccc1[nH]4)C=C3)C=C2` the GI50 (786-0) was > 100 µM (inactive), the GI50 (A498) was > 100 µM (inactive) and the GI50 (A549) was > 100 µM (inactive). For the same compound, the GI50 (ACHN) was > 100 µM (inactive), the GI50 (CAKI-1) was > 100 µM (inactive) and the GI50 (CCRF-CEM) was > 100 µM (inactive). The GI50 (COLO 205) was 74 µM (inactive), the GI50 (DLD-1) was > 100 µM (inactive) and the GI50 (DMS-114) was > 100 µM (inactive). The GI50 (DMS-273) was > 100 µM (inactive), the GI50 (HCT-116) was > 100 µM (inactive) and the GI50 (HCT-15) was > 100 µM. For the same compound, the GI50 (HL-60) was > 100 µM (inactive), the GI50 (HOP-18) was > 100 µM (inactive) and the GI50 (HOP-62) was > 100 µM (inactive). The GI50 (HOP-92) was > 100 µM (inactive), the GI50 (HT-29) was > 100 µM (inactive) and the GI50 (IGROV-1) was > 100 µM (inactive). The GI50 (K562) was > 100 µM (inactive), the GI50 (KM-20L2) was > 100 µM (inactive) and the GI50 (KM12) was > 100 µM (inactive). For the same compound, the GI50 (LOX IMVI) was > 100 µM (inactive), the GI50 (LXFL 529) was > 100 µM (inactive) and the GI50 (M14) was 31.2 µM (inactive). The GI50 (M19-MEL) was > 100 µM (inactive), the GI50 (MOLT-4) was > 100 µM (inactive) and the GI50 (Malme-3M) was > 100 µM (inactive). The GI50 (NCI-H226) was > 100 µM (inactive), the GI50 (NCI-H23) was > 100 µM (inactive) and the GI50 (NCI-H460) was > 100 µM (inactive). For the same compound, the GI50 (NCI-H522) was > 100 µM (inactive), the GI50 (OVCAR-3) was > 100 µM (inactive) and the GI50 (OVCAR-4) was > 100 µM (inactive). For the same compound, the GI50 (OVCAR-5) was > 100 µM (inactive), the GI50 (OVCAR-8) was > 100 µM (inactive) and the GI50 (RPMI-8226) was > 100 µM (inactive). For the same compound, the GI50 (RXF 393) was > 100 µM (inactive), the GI50 (SF-268) was > 100 µM (inactive) and the GI50 (SF-295) was 72.1 µM (inactive). For the same compound, the GI50 (SF-539) was > 100 µM (inactive), the GI50 (SK-MEL-28) was > 100 µM (inactive) and the GI50 (SK-MEL-2) was > 100 µM (inactive). The GI50 (SK-MEL-5) was 52.7 µM (inactive), the GI50 (SK-OV-3) was > 100 µM (inactive) and the GI50 (SN12C) was > 100 µM (inactive). The GI50 (SNB-75) was > 100 µM (inactive), the GI50 (SNB-78) was > 100 µM (inactive) and the GI50 (SR) was > 100 µM (inactive). The GI50 (SW-620) was > 100 µM (inactive), the GI50 (TK-10) was > 100 µM (inactive) and the GI50 (U-251) was > 100 µM (inactive). The GI50 (UACC-257) was > 100 µM (inactive), the GI50 (UACC-62) was > 100 µM (inactive) and the GI50 (UO-31) was > 100 µM (inactive).

`CCN(CC)CSc1nc2ccccc2s1` was tested, and the GI50 (A549) was > 100 µM (inactive), the GI50 (CAKI-1) was > 100 µM (inactive) and the GI50 (CCRF-CEM) was > 100 µM (inactive). For the same compound, the GI50 (COLO 205) was > 100 µM (inactive), the GI50 (DMS-114) was > 100 µM (inactive) and the GI50 (DMS-273) was > 100 µM (inactive). For the same compound, the GI50 (EKVX) was > 100 µM (inactive), the GI50 (HCC 2998) was > 100 µM (inactive) and the GI50 (HCT-15) was > 100 µM. The GI50 (HL-60) was > 100 µM (inactive), the GI50 (HOP-92) was > 100 µM (inactive) and the GI50 (HT-29) was > 100 µM (inactive). The GI50 (IGROV-1) was > 100 µM (inactive), the GI50 (K562) was > 100 µM (inactive) and the GI50 (KM12) was > 100 µM (inactive). For the same compound, the GI50 (LOX IMVI) was > 100 µM (inactive), the GI50 (LXFL 529) was > 100 µM (inactive) and the GI50 (M14) was > 100 µM (inactive). For the same compound, the GI50 (M19-MEL) was > 100 µM (inactive), the GI50 (MOLT-4) was > 100 µM (inactive) and the GI50 (NCI-H226) was > 100 µM (inactive). The GI50 (NCI-H23) was > 100 µM (inactive), the GI50 (NCI-H522) was > 100 µM (inactive) and the GI50 (OVCAR-3) was > 100 µM (inactive). The GI50 (OVCAR-4) was > 100 µM (inactive), the GI50 (OVCAR-8) was > 100 µM (inactive) and the GI50 (RPMI-8226) was > 100 µM (inactive). The GI50 (SF-539) was > 100 µM (inactive), the GI50 (SK-MEL-28) was > 100 µM (inactive) and the GI50 (SK-MEL-5) was > 100 µM (inactive). For the same compound, the GI50 (SK-OV-3) was > 100 µM (inactive), the GI50 (SN12C) was > 100 µM (inactive) and the GI50 (SNB-75) was > 100 µM (inactive). For the same compound, the GI50 (SNB-78) was > 100 µM (inactive), the GI50 (SW-620) was > 100 µM (inactive) and the GI50 (TK-10) was > 100 µM (inactive). The GI50 (UACC-257) was > 100 µM (inactive), the GI50 (UACC-62) was > 100 µM (inactive) and the GI50 (XF498) was > 100 µM (inactive).

`CN1C/C(=C\c2ccccc2)C2=NN(C(N)=S)[C@H](c3ccccc3)[C@@H]2C1` was tested, and the GI50 (786-0) was 64 µM (inactive), the GI50 (A498) was > 100 µM (inactive) and the GI50 (A549) was 52 µM (inactive). For the same compound, the GI50 (ACHN) was 76.7 µM (inactive), the GI50 (CCRF-CEM) was 45.6 µM (inactive) and the GI50 (COLO 205) was 38.5 µM (inactive). For the same compound, the GI50 (DLD-1) was 53.7 µM (inactive), the GI50 (DMS-273) was 47.4 µM (inactive) and the GI50 (EKVX) was > 100 µM (inactive). For the same compound, the GI50 (HCC 2998) was > 100 µM (inactive), the GI50 (HCT-116) was 37.3 µM (inactive) and the GI50 (HCT-15) was > 100 µM. For the same compound, the GI50 (HL-60) was 21.7 µM (inactive), the GI50 (HOP-62) was > 100 µM (inactive) and the GI50 (HOP-92) was 75.3 µM (inactive). For the same compound, the GI50 (HT-29) was 32.9 µM (inactive), the GI50 (IGROV-1) was > 100 µM (inactive) and the GI50 (K562) was 36 µM (inactive). For the same compound, the GI50 (KM-20L2) was 55.6 µM (inactive), the GI50 (KM12) was 54 µM (inactive) and the GI50 (LOX IMVI) was > 100 µM (inactive). For the same compound, the GI50 (LXFL 529) was 29.4 µM (inactive), the GI50 (M14) was 95.1 µM (inactive) and the GI50 (M19-MEL) was 55.2 µM (inactive). The GI50 (MOLT-4) was 89.1 µM (inactive), the GI50 (Malme-3M) was 36.6 µM (inactive) and the GI50 (NCI-H226) was 75.5 µM (inactive). The GI50 (NCI-H23) was 56.4 µM (inactive), the GI50 (NCI-H460) was 50.5 µM (inactive) and the GI50 (NCI-H522) was 40 µM (inactive). For the same compound, the GI50 (OVCAR-3) was > 100 µM (inactive), the GI50 (OVCAR-4) was 56.6 µM (inactive) and the GI50 (OVCAR-5) was > 100 µM (inactive). For the same compound, the GI50 (RPMI-8226) was 0.276 µM (active), the GI50 (RXF 393) was 34.4 µM (inactive) and the GI50 (SF-268) was > 100 µM (inactive). For the same compound, the GI50 (SF-295) was 87.9 µM (inactive), the GI50 (SF-539) was > 100 µM (inactive) and the GI50 (SK-MEL-28) was > 100 µM (inactive). For the same compound, the GI50 (SK-MEL-2) was > 100 µM (inactive), the GI50 (SK-OV-3) was > 100 µM (inactive) and the GI50 (SN12C) was > 100 µM (inactive). The GI50 (SNB-19) was > 100 µM (inactive), the GI50 (SNB-78) was 28.1 µM (inactive) and the GI50 (SR) was > 100 µM (inactive). For the same compound, the GI50 (SW-620) was > 100 µM (inactive), the GI50 (TK-10) was > 100 µM (inactive) and the GI50 (U-251) was > 100 µM (inactive). For the same compound, the GI50 (UACC-257) was 59.2 µM (inactive), the GI50 (UACC-62) was 74.6 µM (inactive) and the GI50 (UO-31) was 36.9 µM (inactive). For the same compound, the GI50 (XF498) was > 100 µM (inactive).
